Tested on: HEp-2
Assay: Cytotoxicity to human epidermoid carcinoma cells (HEP-2)
Assay type: functional, cell-based

Question: Which IC50 does the source give for `Nc1nc(O)c2ncn([C@@H]3C[C@H](CO)[C@@H](O)C3)c2n1` here?
Answer: 95 µM

Question: With `Nc1nc(O)c2ncn(C3CC(O)C(OCP(=O)(O)O)C3)c2n1` (configuration not stated) as the molecule, how does the IC50 read?
Answer: 2.4 µM
